“Also recorded” adds a separate entry of the source. Like-named read-outs stand apart in the source and are kept apart here.
Legend:
[1] = tested on: blood vessel development and/or lymphangiogenesis in Xenopus embryos; format: in vivo, Xenopus laevis; settings: for ISV phenotype: intersomitic vessels; for ISV phenotype / PCV phenotype / VVN phenotype / Blood vessel phenotype / ALH phenotype / ALS phenotype / PLV phenotype / Lymphatic phenotype: Xenopus embryos; for PCV phenotype: posterior cardinal vein; for VVN phenotype: vitelline vein network; for blood vessel development phenotype (apj expression, in words): 20 μM from stage 31, fixed at stage 35/36; for lymph vessel development phenotype (vegfr3 expression, in words): 20 μM from stage 31, fixed at stage 42; for ALH phenotype: anterior lymph heart; for ALS phenotype: anterior lymph sac; for PLV phenotype: posterior lymph vessels
Procedure: All chemicals were purchased from Sigma and 10-mM stock solutions in DMSO were prepared. Chemicals were used at a final concentration of 20 μM in screening medium to treat homozygous albino Xenopus embryos, which lack natural pigmentation. Chemical treatments of embryos (n=7 per well) was initiated at stage 31 (37 hpf) and terminated at stages 35/36 (50 hpf) or 42 (80 hpf). Embryos were fixed in 4% paraformaldehyde and processed for whole mount in situ hybridization.
Where albino embryos were used, the bleaching step was omitted. Semi-automated whole mount in situ hybridizations were performed using the Biolane HTI machine (Hölle & Hüttner AG, Germany). […] Images were captured using a stereomicroscope (SteREO Lumar V12; Carl Zeiss) equipped with a digital camera (AxioCam Color; Carl Zeiss). Composite figures were organized and labeled using Adobe Photoshop CS2 and Adobe Illustrator CS software.
Edema formation or late-stage lethality may result from excretory system defects, (cardio)vascular and/or lymphatic vascular pathologies. […] Embryos were fixed for in situ hybridization either at stage 35/36 to analyze vasculogenesis and intersomitic vein angiogenesis defects or at stage 42 to evaluate possible defects in lymph vessel development (FIGS. 3-5).

[2] = tested on: Xenopus embryos; settings: for Type of edema Periocular: * = causing bulging eyes, # = bilateral, causing narrow-set eyes; for Type of edema Ventral: ‡ = edemas also detected in the gut; for Embr. phen.: embryonic phenotype in the primary screen
Procedure: 10-μl aliquots of the chemicals were transferred from the mother plates with a liquid handling robot (Aquarius, Tecan) into 96-well tissue culture plates to generate diluted stock plates (2 mM in DMSO; 50 μl final volume). […] Once embryos reached stage 31 (37 hpf), 10-μl aliquots of the diluted chemicals were added to the wells. […] Negative control wells contained embryos in screening medium and 0.1×MMR only. Embryos were treated with the chemicals in a humidified incubator at 23° C. over a timeframe of 4 days. Embryos were manually scored for the presence of edema or other morphological phenotypes using a teaching dissecting microscope (SV6; Carl Zeiss). Two investigators performed separately the scoring daily at stages 39 (56 hpf), 41 (76 hpf), 45 (98 hpf), and 47 (120 hpf). Dead embryos were removed and 100 μl of water was added daily to each well to compensate for fluid evaporation. […] For imaging at the end of the experiments. Xenopus tadpoles were anesthetized with 0.05% tricaine (Sigma #A5040) in 0.1×MMR. Images were captured using a stereomicroscope (SteREO Lumar V12; Carl Zeiss) equipped with a digital camera (AxioCam Color; Carl Zeiss).
Xenopus late tailbud embryos at stage 31 (37 hpf) were selected for compound treatment. […] Embryos were arrayed into 48-well dishes (five per well) and treated with test compounds at a concentration of 20 μM in the presence of 1% DMSO. […] All 48-well dishes also contained replicates of negative controls (1% DMSO). Embryos were monitored daily over a period of four days for edema formation. In addition, drug-induced lethality and other externally visible phenotypes were scored. On average, 320 compounds were screened per week.

[3] = compounds causing lethality, 20 μM, 1% DMSO, treatment from stage 31, Nieuwkoop & Faber stage
[4] = compounds causing edema, 20 μM, 1% DMSO, treatment from stage 31, scored to stage 47
[5] = embryonic stage, — = no stage of lethality given
[6] = onset of edema, 20 μM, 1% DMSO, treatment from stage 31, Nieuwkoop & Faber stage
[7] = compounds causing cytotoxicity, 20 μM, 1% DMSO, treatment from stage 31, Nieuwkoop & Faber stage

| Compound | ISV phenotype [1] | PCV phenotype [1] | VVN phenotype [1] | Lethality (NF) [2, 4] | Type of edema Pericordial ([2]; embryonic stage) | Lethality [2, 5] | Type of edema Ventral ([2]; embryonic stage) | Onset (NF) [2, 6] | further results |
| --- | --- | --- | --- | --- | --- | --- | --- | --- | --- |
| O=C1C(SCCO)=C(SCCO)C(=O)c2ccccc21 [NSC 95397, 2,3-bis[(2-Hydroxyethyl)thio]-1,4-naphthoquinone] | impaired | hypoplastic | hypoplastic | – | – | – | – | – | Lethality (NF) [2, 3]: 40 NF |
| Clc1ccc(C(c2ccc(Cl)cc2)n2cc[n+](CC(OCc3ccc(Cl)cc3Cl)c3ccc(Cl)cc3Cl)c2)cc1 (centres unmarked) [Calmidazolium chloride] | ectopic | normal | hyperplastic | – | – | – | – | – | blood vessel development phenotype (apj expression, in words) [1]: promoting ectopic, premature angiogenesis; also recorded: ectopic sprouting phenotype was even more pronounced; Lethality (NF) [2, 3]: 37/38 |
| CN(C)S(=O)(=O)c1ccc2c(c1)C(=Cc1cc3c([nH]1)CCCC3)C(=O)N2 [SU 6656, 2,3-Dihydro-N,N-dimethyl-2-oxo-3-[(4,5,6,7-tetrahydro-1H-indol-2-yl)methylene]-1H-indole-5-sulfonamide] | – | – | – | 46 NF | 41/42 | 46 embryonic stages according to Nieuwkoop and Faber (NF) | 39/40 | 39/40 | lymph vessel development phenotype (vegfr3 expression, in words) [1]: inhibiting preferentially lymphatic vascular development; also recorded: poorly developed, stunted lymphatics emerging from the ALS and ALH and hypoplastic PLV; Blood vessel phenotype [1]: normal; ALH phenotype [1]: dysplastic; ALS phenotype [1]: stunted; PLV phenotype [1]: hypopiastic; Type of edema Proctodeal ([2]; embryonic stage): 39/40; Type of edema Pronephric ([2]; embryonic stage): 39/40; Type of edema Periocular ([2]; embryonic stage): 41/42* |
| OCc1ccc(-c2nn(Cc3ccccc3)c3ccccc23)o1 [YC-1, 3-(5′-Hydroxymethyl-2′-fulyl)-1-benzyl indazole] | normal | normal | hypoplastic | – | – | – | – | 45 NF | blood vessel development phenotype (apj expression, in words) [1]: dispersed, punctuated patterns of VVN endothelia; Lymphatic phenotype [1]: normal; Embr. phen. [2]: EDE |
| COc1cc(-c2ccc(=O)[nH]n2)ccc1OC(F)F [Zardaverine, 6-(4-Difluoromethoxy-3-methoxyphenyl)-3(2H)-pyridazinone] | normal | normal | hypoplastic | 43 NF | 39/40 | 43 embryonic stages according to Nieuwkoop and Faber (NF) | – | 39/40 | blood vessel development phenotype (apj expression, in words) [1]: only interfered with the assembly of the VVN; Type of edema Pronephric ([2]; embryonic stage): 41/42 |
| Cc1cc(N)c2ccccc2[n+]1CCCCCCCCCC[n+]1c(C)cc(N)c2ccccc21.[Cl-].[Cl-] [Dequalinium dichloride, 1,1′-Decamethylenebis(4-aminoquinaldinium) dichloride] | – | – | – | 39 NF | 39 embryonic stages according to Nieuwkoop and Faber (NF) | 39 embryonic stages according to Nieuwkoop and Faber (NF) | – | – | lymph vessel development phenotype (vegfr3 expression, in words) [1]: poorly developed, stunted lymphatics emerging from the ALS and ALH and hypoplastic PLV; Blood vessel phenotype [1]: normal; ALH phenotype [1]: stunted; ALS phenotype [1]: stunted; PLV phenotype [1]: hypoplastic |
| CC(C)[C@H](CO)Nc1nc(Nc2cccc(Cl)c2)c2ncn(C(C)C)c2n1 [Purvalanol A] | normal | normal | hypoplastic | – | – | – | – | – | blood vessel development phenotype (apj expression, in words) [1]: only interfered with the assembly of the VVN; Lymphatic phenotype [1]: normal; Lethality (NF) [2, 3]: 41/42; Embr. phen. [2]: LET |
| CC[C@H](C)C(=O)O[C@H]1CCC=C2C=C[C@H](C)[C@H](CC[C@@H]3C[C@@H](O)CC(=O)O3)[C@H]21 [Mevastatin] | – | – | – | 45 NF | 35/36 | 45 embryonic stages according to Nieuwkoop and Faber (NF) | 41/42 | 35/36 | lymph vessel development phenotype (vegfr3 expression, in words) [1]: lymphangiogenesis was largely suppressed; Blood vessel phenotype [1]: normal; ALH phenotype [1]: impaired; ALS phenotype [1]: impaired; PLV phenotype [1]: hypoplastic; Embr. phen. [2]: EDE |
| Cc1ccc(Cl)c(Nc2ccccc2C(=O)[O-])c1Cl.[Na+] [Meclotenamic acid sodium] | impaired | hypoplastic | hypoplastic | – | – | – | – | – | Embr. phen. [2]: EDE |
| Cl.O=C(CCCN1CCC2(CC1)C(=O)N(CCc1ccc(N=C=S)cc1)CN2c1ccccc1)c1ccc(F)cc1 [N-(p-Isothiocyanatophenethyl)spiperone hydrochloride] | – | – | – | – | – | – | 45 embryonic stages according to Nieuwkoop and Faber (NF) | 45 NF | Type of edema Periocular ([2]; embryonic stage): 45 embryonic stages according to Nieuwkoop and Faber (NF) |
| COCCOC(=O)C1=C(C)NC(C)=C(C(=O)OC(C)C)C1c1cccc([N+](=O)[O-])c1 (centres unmarked) [Nimodipine, 1,4-Dihydro-2,6-dimethyl-4-(3-nitrophenyl)-3,5-pyridinecarboxylic acid 2-methoxyethyl 1-methylethyl ester] | – | – | – | – | 41/42 | – | – | 41/42 | Lethality ([2]; Xenopus laevis, in vivo): 41/42; Lethality (NF) ([2]; Xenopus laevis, in vivo): 41/42 |
| Nc1nc2ccc(Cl)cc2c2nc(-c3ccco3)nn12 [CGS-15943, 9-Chloro-2-(2-furyl)[1,2,4]triazolo[1,5-c]quinazolin-5-amine] | – | – | – | – | – | – | – | – | Lethality (NF) ([2]; Xenopus laevis, in vivo): 46 NF; Onset (NF) ([2]; in vivo): 41/42 |
| C/C(=C\c1ccc(C(=O)O)cc1)c1ccc2c(c1)C(C)(C)CCC2(C)C [TTNPB] | – | – | – | 45 NF | – | 45 embryonic stages according to Nieuwkoop and Faber (NF) | 41/42 | 39 NF | Type of edema Proctodeal ([2]; embryonic stage): 41/42; Type of edema Pronephric ([2]; embryonic stage): 39 embryonic stages according to Nieuwkoop and Faber (NF); Type of edema Cerebral ([2]; embryonic stage, + = cerebral edema extending dorso-anteriorly and displacing the eyes): 41/42+ |
| Nc1nc2ccc(OC(F)(F)F)cc2s1 [Riluzole, 2-Amino-6-(trifluoromethoxy)-benzothiazole] | – | – | – | – | – | – | 45 embryonic stages according to Nieuwkoop and Faber (NF) | – | Type of edema Pronephric ([2]; embryonic stage): 45 embryonic stages according to Nieuwkoop and Faber (NF); Type of edema Periocular ([2]; embryonic stage): 45 embryonic stages according to Nieuwkoop and Faber (NF) |
| O=C(/C=C/c1ccc(O)c(O)c1)OCCc1ccccc1 [Caffeic acid phenethyl ester] | – | – | – | – | – | – | – | – | Lethality (NF) ([2]; compounds causing pigmentation defects, 20 μM, scored to stage 47): 39 NF; Onset (NF) ([2]; onset of pigmentation defects, 20 μM, 1% DMSO): 33/34 |
| Cc1ccc(Cl)c(Nc2ccccc2C(=O)O)c1Cl.[Na] [Meclofenamic acid sodium, 2-([2,6-Dichloro-3-methylphenyl]amino)benzoic acid sodium] | – | – | – | 41/42 | 35/36 | 41/42 | – | 35/36 | – |
| O=C(O)CCCCC1CCSS1 (racemic) [(±)-alpha-Lipoic Acid] | – | – | – | – | 39 embryonic stages according to Nieuwkoop and Faber (NF) | – | – | – | Type of edema Pronephric ([2]; embryonic stage): 42 embryonic stages according to Nieuwkoop and Faber (NF) |
| COC(=O)C1=C(C)NC(C)=C(C(=O)OC)C1c1ccccc1[N+](=O)[O-] [Nifedipine] | – | – | – | – | 41/42 | – | 45 embryonic stages according to Nieuwkoop and Faber (NF) | 41/42 | Type of edema Periocular ([2]; embryonic stage): 41/42 |
| CC(C)(C)c1ccc(S(=O)(=O)/C=C/C#N)cc1 [Bay 11-7085, (E)-3-(4-t-Butylphenylsulfortyl)-2-propenenitrile] | – | – | – | – | – | – | – | – | Lethality (NF) [2, 7]: 32 NF |
| Dequalinium analog, C-14 linker | – | – | – | – | – | – | – | – | Lethality (NF) [2, 7]: 32 NF |
